The subject of test [1] is INS1. In words: INS-1E survival protection against cytokine death – cell-based, luminescence, retest, dose response (AID 449756).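 Also: cell death triggered by IL-1 beta plus TNF-alpha plus IFN-gamma mixture; protective hits raise ATP signal compared with cytokine alone wells.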 The test is classed as functional. Conditions: Rattus norvegicus.
In test [2] the target is Heat shock protein HSP 90-alpha (Homo sapiens, UniProt P07900). In kind it is functional, organism-based.
A short description of test [3]: NIH3T3 cell viability loss – ATP luminescence, mouse fibroblasts, counter-screen, dose response (AID 2010).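 Also: cells exposed to compound for about 90 hours before reading.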 The test is classed as functional, cell-based. For orientation: The purpose of a counterscreen is to sort out artefacts and off-target activity.
Test [4] deals with Streptococcus sp. 'group A'. In words: Streptococcus pyogenes SK(-)GAS viability under kanamycin – luminescence, BacTiterGlo, confirmation, counter-screen for streptokinase expression inhibitor project, dose response (AID 1900). In kind it is functional, organism-based.
A short description of test [5]: Trypanosoma cruzi growth suppression in host cells – NIH3T3 host cells, beta-gal luminescence, confirmation (AID 2044).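 Also: intracellular parasites grown in NIH/3T3 mouse fibroblasts as host cells; luminescent beta-galactosidase reporter signal from transgenic T. cruzi replicating inside host cells; inhibitors lower the luminescence signal.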 In kind it is functional, cell-based.
Test [6] has as its target T1, Protein RecA (Mycobacterium tuberculosis, UniProt P9WHJ3).
T1 sequence (P9WHJ3 whole entry): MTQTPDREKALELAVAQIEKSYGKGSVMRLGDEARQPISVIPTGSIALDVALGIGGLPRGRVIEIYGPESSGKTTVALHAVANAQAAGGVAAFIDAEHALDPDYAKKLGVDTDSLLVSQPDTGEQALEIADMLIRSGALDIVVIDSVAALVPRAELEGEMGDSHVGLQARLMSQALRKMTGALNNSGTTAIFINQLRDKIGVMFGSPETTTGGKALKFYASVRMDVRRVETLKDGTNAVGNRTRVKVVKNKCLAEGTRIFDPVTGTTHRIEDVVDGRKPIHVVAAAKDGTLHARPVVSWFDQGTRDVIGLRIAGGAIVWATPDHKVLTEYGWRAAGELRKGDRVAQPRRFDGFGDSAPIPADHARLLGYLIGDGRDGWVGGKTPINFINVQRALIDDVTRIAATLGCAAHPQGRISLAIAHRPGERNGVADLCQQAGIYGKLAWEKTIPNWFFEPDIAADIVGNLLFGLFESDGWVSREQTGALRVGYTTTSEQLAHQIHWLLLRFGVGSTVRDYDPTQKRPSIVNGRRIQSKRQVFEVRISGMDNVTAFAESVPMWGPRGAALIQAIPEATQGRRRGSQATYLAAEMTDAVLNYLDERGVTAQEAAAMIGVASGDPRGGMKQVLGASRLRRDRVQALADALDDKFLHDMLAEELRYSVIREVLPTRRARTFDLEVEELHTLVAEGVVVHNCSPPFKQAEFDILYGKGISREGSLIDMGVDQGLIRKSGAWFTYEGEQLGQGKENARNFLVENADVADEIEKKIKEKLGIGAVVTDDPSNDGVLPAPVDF
In words: Fluorescence Cell-Free Homogeneous Dose Retest to Identify Inhibitors of RecA-Intein Splicing Activity. [Related pubchem assays (depositor defined):AID2097, AID2223, AID489010, AID492950]. The test is classed as functional.

For test [7], the target named is T2, Replicative DNA helicase DnaB (Mycobacterium tuberculosis, UniProt P9WMR3).
T2 sequence (P9WMR3 whole entry): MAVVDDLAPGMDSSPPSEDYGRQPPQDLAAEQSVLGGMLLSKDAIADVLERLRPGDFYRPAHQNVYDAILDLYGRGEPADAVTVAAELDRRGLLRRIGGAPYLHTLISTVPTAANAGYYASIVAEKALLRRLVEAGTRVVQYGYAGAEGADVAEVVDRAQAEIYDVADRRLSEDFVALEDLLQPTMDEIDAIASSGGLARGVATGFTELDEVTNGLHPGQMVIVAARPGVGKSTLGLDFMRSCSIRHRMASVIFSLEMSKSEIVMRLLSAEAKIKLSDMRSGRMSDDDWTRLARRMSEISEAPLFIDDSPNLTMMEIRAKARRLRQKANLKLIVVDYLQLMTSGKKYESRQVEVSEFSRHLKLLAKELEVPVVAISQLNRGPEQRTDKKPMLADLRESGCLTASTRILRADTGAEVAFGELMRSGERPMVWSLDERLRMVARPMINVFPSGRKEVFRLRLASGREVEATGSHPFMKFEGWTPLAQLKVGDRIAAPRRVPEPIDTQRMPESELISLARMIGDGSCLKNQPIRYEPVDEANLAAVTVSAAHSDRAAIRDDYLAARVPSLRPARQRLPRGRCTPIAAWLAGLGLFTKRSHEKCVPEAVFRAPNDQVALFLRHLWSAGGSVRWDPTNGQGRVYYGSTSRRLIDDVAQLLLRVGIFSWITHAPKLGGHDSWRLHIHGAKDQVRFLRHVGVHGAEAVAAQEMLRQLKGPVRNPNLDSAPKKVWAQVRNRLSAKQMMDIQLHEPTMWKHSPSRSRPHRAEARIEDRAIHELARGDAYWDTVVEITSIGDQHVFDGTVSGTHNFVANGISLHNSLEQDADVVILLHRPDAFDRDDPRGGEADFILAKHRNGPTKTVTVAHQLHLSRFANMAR
In words: DnaB intein splicing inhibitors, dose response, biochemical, cell-free fluorescence (AID 449749). The test is classed as functional.

Test [8] in a line: Counterscreen for activators of the function of SWI/SNF related, matrix associated, actin dependent regulator of chromatin, subfamily a, member 2 (SMARCA2, BRM): Luminescence-based cell-based high throughput dose response assay to identify non-selective compounds using the VP16 reporter assay. In kind it is functional.
For test [9], the target named is T3, Caspase-6 (Homo sapiens, UniProt P55212).
T3 sequence (P55212 whole entry): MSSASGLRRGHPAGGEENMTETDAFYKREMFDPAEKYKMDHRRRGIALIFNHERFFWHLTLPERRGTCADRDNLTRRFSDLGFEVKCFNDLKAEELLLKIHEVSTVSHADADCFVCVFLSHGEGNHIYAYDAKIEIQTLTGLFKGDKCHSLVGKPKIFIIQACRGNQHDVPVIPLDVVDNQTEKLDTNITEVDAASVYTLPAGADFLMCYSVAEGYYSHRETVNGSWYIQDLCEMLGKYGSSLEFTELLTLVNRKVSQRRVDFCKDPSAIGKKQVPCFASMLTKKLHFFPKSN
In words: inhibition of CASP6 peptide cleavage – biochemical, VEID-R110 fluorescence, cherry-pick, dose response (AID 720632).

Each structure is given as a SMILES string. Calls of active or inactive are those of the source. Some results are limits rather than exact numbers.

Broadly, the AC50 is the concentration at which the activity in the assay is half-maximal. As usually defined, the EC50 is the concentration that produces a half-maximal response. Consider `CCCCC(=O)NC(c1ccco1)c1cc(Cl)c2cccnc2c1O` (stereo unspecified), for which the AC50 in test [1] is 2.74 µM (active); in [2], 4.37 µM (active). Also, the EC50 in test [3] was 3.65 µM (active); in test [4] it was 4 µM (active); in [5], 1.91 µM (active).

For `CCCCC(=O)NC(c1ccc(Cl)cc1)c1ccc2cccnc2c1O` (stereo unspecified), the AC50 in test [1] is 0.476 µM (active); in test [2], 15 µM (active). Moreover, the EC50 is 0.617 µM (active) in test [3] and 0.268 µM (active) in [5].

As for `COc1ccc2noc3c2c1C(=O)c1ccccc1-3`, the values for the EC50 in test [6] and in test [8] were 3.61 µM (active) and > 91.2 µM (inactive), respectively. Moreover, in test [7], the AC50 was 1.18 µM (inconclusive).

For `CCc1ccc2c(c1)C(NC(C)=O)C(=O)N2CCN1CCOCC1` (stereo unspecified), the AC50 in [9] was 11.9 µM (active); in [7], 22.3 µM (active). Further, in test [6], the EC50 is 16.8 µM (active).

As to `O=C(N/N=C/c1ccccc1O)/C(O)=C\C1=NC2(CCCC2)Cc2ccccc21`, the EC50 in test [4] was 3.18 µM (active).

Source of the values: ChEMBL document CHEMBL1201862, “PubChem BioAssay data set” (2004).
